The subject of this assay is HCV replication. Description: HCV replicon assay (luciferase) in ET (Huh-lucubineo-ET) cell line. In kind it is cell-based. As to conditions: Hepatitis C virus, tested at 5 μM; ET replicon cells; luciferase activity measured 48-72 hours later; relative to no compound control. The procedure, abridged: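 Huh-lucubineo-ET cells stably carry a subgenomic replicon with a firefly luciferase–ubiquitin–neo fusion and adaptive NS3-5B mutations; they were seeded 24 h before compound addition (0.1 nM–50 μM, 0.5% DMSO). Luciferase was read 48–72 h later as % inhibition versus no-compound control, with parallel WST-1 cytotoxicity. EC50 and TC50 came from 10-point 2-fold dilutions fitted to a Hill equation.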

As to `O=C(Cc1ccc(NC(=O)[C@@H]2CSC(c3ccncc3)N2C(=O)OCc2ccccc2)cc1)NCc1ccccc1` (stereo in doubt) [Compound 7105, 4-[4-(Benzylcarbamoyl-methyl)-phenylcarbamoyl]-2-pyridin-4-yl-thiazolidine-3-carboxylic acid benzyl ester], the inhibition at 5 µM came to 74.2%.
With `O=C(NCCN1CCOCC1)c1ccc(-c2csc(NC(=O)[C@@H]3CSC4(CCOCC4)N3C(=O)OCc3ccccc3)n2)cc1` [Compound 7138, 3-{4-[4-(2-Morpholin-4-yl-ethylcarbamoyl)-phenyl]-thiazol-2-ylcarbamoyl}-8-oxa-1-thia-4-aza-spiro[4.5]decane-4-carboxylic acid benzyl ester], at 5 µM the inhibition was 100%.
`CN1CCC2(CC1)SC[C@@H](C(=O)Nc1nc(-c3ccc(C(=O)NC4CC4)cc3)cs1)N2C(=O)OCc1ccccc1` [Compound 7114, 3-[4-(4-Cyclopropylcarbamoyl-phenyl)-thiazol-2-ylcarbamoyl]-8-methyl-1-thia-4,8-diaza-spiro[4.5]decane-4-carboxylic acid benzyl ester]: the inhibition at 5 µM was determined as 100%.
With `O=C(NC1CC1)c1ccc(-c2csc(NC(=O)[C@@H]3CSC(C4CCOCC4)N3C(=O)OCc3ccccc3)n2)cc1` (mixture of isomers) [Compound 7025, (R)-4-[4-(4-Cyclopropylcarbamoyl-phenyl)-thiazol-2-ylcarbamoyl]-2-(tetrahydro-pyran-4-yl)-thiazolidine-3-carboxylic acid benzyl ester] the figure was 100%; with `CC(C)(C)OC(=O)N1C(C2CCOCC2)SC[C@H]1C(=O)Nc1nc(-c2ccc(C(=O)NC3CC3)cc2)cs1` (stereo partly shown) [Compound 7090, 4-[4-(4-Cyclopropylcarbamoyl-phenyl)-thiazol-2-ylcarbamoyl]-2-(tetrahydropyran-4-yl)-thiazolidine-3-carboxylic acid tert-butyl ester], 99.7%; with `CC1(c2ccncc2)SC[C@@H](C(=O)Nc2nc(-c3ccc(C(=O)NC4CC4)cc3)cs2)N1C(=O)OCc1ccccc1` (stereo in doubt) [Compound 7096, 4-[4-(4-Cyclopropylcarbamoyl-phenyl)-thiazol-2-ylcarbamoyl]-2-methyl-2-pyridin-4-yl-thiazolidine-3-carboxylic acid benzyl ester], 99.9%.
The result for `Cc1ccc2[nH]c(Cc3ccc(NC(=O)[C@@H]4CSC(c5ccncc5)N4C(=O)OCc4ccccc4)cc3)nc2c1` (stereo partly shown) [Compound 7117, 4-[4-(5-Methyl-1H-benzoimidazol-2-ylmethyl)-phenylcarbamoyl]-2-pyridin-4-yl-thiazolidine-3-carboxylic acid benzyl ester] reads 42.4%; that for `O=C(Cc1cccc(NC(=O)[C@@H]2CSC(c3ccncc3)N2C(=O)OCc2ccccc2)c1)NCc1ccc(Cl)cc1` (stereo in doubt) [Compound 7115, 4-{3-[(4-Chloro-benzylcarbamoyl)-methyl]-phenylcarbamoyl}-2-pyridin-4-yl-thiazolidine-3-carboxylic acid benzyl ester], 98%; that for `O=C(O)CCCCC1SC[C@@H](C(=O)Nc2nc(-c3ccc(C(=O)NC4CC4)cc3)cs2)N1C(=O)OCc1ccccc1` (stereo in doubt) [Compound 7088, 2-(4-Carboxy-butyl)-4-[4-(4-cyclopropylcarbamoyl-phenyl)-thiazol-2-ylcarbamoyl]-thiazolidine-3-carboxylic acid benzyl ester], 99.8%.
With `N#Cc1ccc(C2SC[C@@H](C(=O)Nc3nc(-c4ccc(C(=O)NC5CC5)cc4)cs3)N2C(=O)OCc2ccccc2)cc1` (mixture of isomers) [Compound 7017, (R)-2-(4-Cyano-phenyl)-4-[4-(4-cyclopropylcarbamoyl-phenyl)-thiazol-2-ylcarbamoyl]-thiazolidine-3-carboxylic acid benzyl ester] the figure was 100%; with `O=C(Cc1cccc(NC(=O)[C@@H]2CSC(c3ccncc3)N2C(=O)OCc2ccccc2)c1)NCc1ccccc1` (stereo partly shown) [Compound 7116, 4-[3-(Benzylcarbamoyl-methyl)-phenylcarbamoyl]-2-pyridin-4-yl-thiazolidine-3-carboxylic acid benzyl ester], 84.9%; with `O=C(NC1CC1)c1ccc(-c2csc(NC(=O)[C@@H]3CSC(c4cncnc4)N3C(=O)OCc3ccccc3)n2)cc1` (mixture of isomers) [Compound 7022, (R)-4-[4-(4-Cyclopropylcarbamoyl-phenyl)-thiazol-2-ylcarbamoyl]-2-pyrimidin-5-yl-thiazolidine-3-carboxylic acid benzyl ester], 100%.
For the compound `O=C(Cc1ccc(NC(=O)[C@@H]2CSC(c3ccncc3)N2C(=O)OCc2ccccc2)cc1)NC1CC1` (stereo partly shown) [Compound 7068, 4-(4-Cyclopropylcarbamoylmethyl-phenylcarbamoyl)-2-pyridin-4-yl-thiazolidine-3-carboxylic acid benzyl ester], the inhibition at 5 µM was found to be 6%.
In the case of `CC1SC[C@@H](C(=O)Nc2nc(-c3ccc(C(=O)NC4CC4)cc3)cs2)N1C(=O)OCc1ccccc1` (stereo partly drawn) [Compound 7024, (R)-4-[4-(4-Cyclopropylcarbamoyl-phenyl)-thiazol-2-ylcarbamoyl]-2-methyl-thiazolidine-3-carboxylic acid benzyl ester], the inhibition at 5 µM stood at 99.7%.
In the case of `CNC(=O)CCCCC1SC[C@@H](C(=O)Nc2nc(-c3ccc(C(=O)NC4CC4)cc3)cs2)N1C(=O)OCc1ccccc1` (stereo partly shown) [Compound 7099, 4-[4-(4-Cyclopropylcarbamoyl-phenyl)-thiazol-2-ylcarbamoyl]-2-(4-methylcarbamoyl-butyl)-thiazolidine-3-carboxylic acid benzyl ester], the inhibition at 5 µM was 100%.
As to `O=C(O)c1ccc(C2SC[C@@H](C(=O)Nc3nc(-c4ccc(C(=O)NC5CC5)cc4)cs3)N2C(=O)OCc2ccccc2)cc1` (mixture of isomers) [Compound 7014, (R)-2-(4-Carboxy-phenyl)-4-[4-(4-cyclopropylcarbamoyl-phenyl)-thiazol-2-ylcarbamoyl]-thiazolidine-3-carboxylic acid benzyl ester], testing at 5 µM gave an inhibition of 97.7%.
In turn, `O=C(NC1CC1)c1ccc(-c2csc(NC(=O)[C@@H]3CSC(C4CCOCC4)N3C(=O)[C@@H]3CCCO3)n2)cc1` (stereo partly shown) [Compound 7069, 3-(Tetrahydro-furan-2-carbonyl)-2-(tetrahydro-pyran-4-yl)-thiazolidine-4-carboxylic acid [4-(4-cyclopropylcarbamoyl-phenyl)-thiazol-2-yl]-amide] gave an inhibition at 5 µM of 98.8%.
`O=C(NCc1ccccc1)c1ccc(NC(=O)[C@@H]2CSC(c3ccncc3)N2C(=O)OCc2ccccc2)cc1` (stereo partly shown) [Compound 7075, 4-(4-Benzylcarbamoyl-phenylcarbamoyl)-2-pyridin-4-yl-thiazolidine-3-carboxylic acid benzyl ester]: 5 µM produced 21.3% inhibition.
`O=C(NC1CC1)c1ccc(-c2csc(NC(=O)[C@@H]3C[C@@H]4CCCC[C@@H]4N3C(=O)OCc3ccccc3)n2)cc1` [Compound 7043, (2S,3aS,7aS)-2-[4-(4-Cyclopropylcarbamoyl-phenyl)-thiazol-2-ylcarbamoyl]-octahydro-indole-1-carboxylic acid benzyl ester] had an inhibition at 5 µM of 100%.

Values taken from patent US20080181866A1, “Amido Anti-viral Compounds” (Genelabs Technologies, Inc., priority 2006, published 2008).
